What all share (type): binding
One assay concerns the target T1, PARP12 (Homo sapiens, UniProt Q9H0J9).
T1 sequence (Q9H0J9 489-684): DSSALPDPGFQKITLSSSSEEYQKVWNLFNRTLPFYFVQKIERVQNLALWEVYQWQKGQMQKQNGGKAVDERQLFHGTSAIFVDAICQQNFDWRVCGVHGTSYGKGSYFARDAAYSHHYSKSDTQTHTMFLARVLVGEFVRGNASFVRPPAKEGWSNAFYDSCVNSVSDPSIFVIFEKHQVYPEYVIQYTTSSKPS
Briefly: In vitro TR-FRET probe displacement assay (Probe C), PARP12. Particulars: TR-FRET displacement of Probe C, PARP12 residues 489-684. Details: 489-684 of. The procedure:
A portion of PARP12 (residues 489 to 684 of NP_073587.1 (SEQ ID NO: 3), GenBank Accession No. NM_022750.3) was overexpressed in Sf9 cells. An N-terminal fusion tag, MAHHHHHHENLYFQSM (SEQ ID NO: 8), was used to purify the protein from cell lysates. The fusion tag was left on the protein for use in the probe displacement assay.
(§1) Displacement of a Probe C binding to monoPARP active sites was measured using a time-resolved fluorescence resonance energy transfer (TR-FRET) assay. 20 nL of a dose response curve of each test compound was spotted in black 384-well polystyrene proxiplates (Perkin Elmer) using a Mosquito (TTP Labtech). Reactions were performed in a 8 μL volume by adding 6 μL of the monoPARP and Probe C in assay buffer (20 mM HEPES pH=8, 100 mM NaCl, 0.1% bovine serum albumin, 2 mM DTT and 0.002% Tween20), incubating with test compound at 25° C. for 30 min, then adding 2 μL of ULight-streptavidin and LANCE Eu-W 1024 Anti-6×His (Perkin Elmer). Binding reactions were equilibrated at 25° C. for an additional 30 min, then read on an Envision platereader equipped with a LANCE/DELFIA top mirror (Perkin Elmer) using excitation of 320 nm and emission of 615 nm and […] with a 90 μs delay. The ratio of the 665/615 nm emission were calculated for each well to determine the amount of complex of monoPARP and Probe C in each well. […]

The next assay deals with T2, PARP14 (Homo sapiens, UniProt Q460N5).
T2 sequence (Q460N5 1611-1801): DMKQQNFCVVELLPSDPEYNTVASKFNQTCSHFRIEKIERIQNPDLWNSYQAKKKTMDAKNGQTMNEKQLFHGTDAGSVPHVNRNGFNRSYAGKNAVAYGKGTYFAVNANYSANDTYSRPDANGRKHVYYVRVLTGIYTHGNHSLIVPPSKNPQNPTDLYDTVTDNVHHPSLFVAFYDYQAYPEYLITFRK
In words: In vitro TR-FRET probe displacement assay (Probe C), PARP14. More on the design: made in house; host or cells: E. coli. Particulars: TR-FRET displacement of Probe C, PARP14 residues 1611-1801. The procedure:
A portion of PARP14 (residues 1611 to 1801 of NP_060024.2 (SEQ ID NO: 4), GenBank Accession No. NM_017554) was overexpressed in E. coli cells. An N-terminal fusion tag, […] (SEQ ID NO: 9), was used to purify the protein from cell lysates. The fusion tag was left on the protein for use in the probe displacement assay.
as §1, with “performed in an 8 μL” for “performed in a 8 μL”, “μL of ULight-anti 6×His and LANCE” for “μL of ULight-streptavidin and LANCE”, “Eu-W 1024 labeled streptavidin (Perkin Elmer).” for “Eu-W 1024 Anti-6×His (Perkin Elmer).”

Another assay has as its target T3, PARP16 (Homo sapiens, UniProt Q8N5Y8).
T3 construct: made in house; host or cells: E. coli
T3 sequence (Q8N5Y8 5-279 isoform Q8N5Y8-3): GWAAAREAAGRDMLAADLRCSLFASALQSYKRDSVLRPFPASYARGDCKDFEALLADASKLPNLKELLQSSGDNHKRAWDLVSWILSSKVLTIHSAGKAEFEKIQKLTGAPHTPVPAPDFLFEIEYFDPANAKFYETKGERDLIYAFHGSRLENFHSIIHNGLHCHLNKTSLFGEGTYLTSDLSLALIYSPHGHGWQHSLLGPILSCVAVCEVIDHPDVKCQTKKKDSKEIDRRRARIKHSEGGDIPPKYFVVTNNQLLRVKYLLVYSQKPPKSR
Briefly: In vitro TR-FRET probe displacement assay (Probe C), PARP16. Particulars: TR-FRET displacement of Probe C, PARP16 residues 5-279. The procedure: A portion of PARP16 (residues 5 to 279 of NP_060321.3 (SEQ ID NO: 6), GenBank Accession No. NM_017851) was overexpressed in E. coli cells. An N-terminal fusion tag, […] (SEQ ID NO: 9), was used to purify the protein from cell lysates. The fusion tag was left on the protein for use in the probe displacement assay.
as §1, with “performed in an 8 μL” for “performed in a 8 μL”, “μL of ULight-anti 6×His and LANCE” for “μL of ULight-streptavidin and LANCE”, “Eu-W 1024 labeled streptavidin (Perkin Elmer).” for “Eu-W 1024 Anti-6×His (Perkin Elmer).”
(In TR-FRET formats the signal depends on donor and acceptor labels being close together.)

pIC50: −log10 of the molar value.

In general, pIC50 refers to −log10 of the IC50, conventionally taken in molar units. Higher therefore signals a low IC50.

As to `O=c1[nH]ncc(N2Cc3ccc(OC4CCNCC4)cc3C2)c1C(F)(F)F` [Compound A, 5-[5-(Piperidin-4-yloxy)-2,3-dihydro-1H-isoindol-2-yl]-4-(trifluoromethyl)-2,3-dihydropyridazin-3-one], the pIC50 at PARP12 is 6.70; at PARP14, 7.30; on PARP16, 7.00.

(Values after patent US11293927B2, “Screening methods for PARP modulators” (Ribon Therapeutics, Inc., priority 2018, dated 2022).)
